IC50 and Ki data for 25 molecules are collected here from patent publication US9732094B2, “Arylquinazolines” (Merck Patent GmbH, priority 2013, dated 2017).

Where two headings read alike, the source gives them in different places.

One data set addresses DNA-PK (Homo sapiens (Human), UniProt P78527). As to the kind of experiment: DNA-PK assay (biochemical), flashplate 33P-ATP kinase assay. An outline of the steps: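 Radiometric kinase reaction in streptavidin-coated flashplates, stopped with 200 mM EDTA, then 30 min room-temperature incubation and saline washes.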
Data set [1] has as its target DNA-PK phosphorylation at serine 2056 (Homo sapiens (Human), UniProt P78527). As to the kind of experiment: DNA-PK phosphorylation at serine 2056 (cellular), bleomycin-treated HCT116 cells, ELISA. The settings on record: read-out: IC50 pDNA-PK. Type of data set: cell-based. An outline of the steps:
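Test compounds and bleomycin (10 μM) are added to adherent HCT116 cells for 6 h. Detection uses an HRP-based chemiluminescent ELISA, with phospho-DNA-PK signals standardised to total protein.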

For the next data set, the target named is Kv11.1 (hERG) (Homo sapiens (Human), UniProt Q12809). As to the kind of experiment: Kv11.1 (hERG) ion channel activity (patch clamp assay), HEK293 cells transfected with hERG gene.
Chain of Kv11.1 (hERG) (Q12809 whole entry): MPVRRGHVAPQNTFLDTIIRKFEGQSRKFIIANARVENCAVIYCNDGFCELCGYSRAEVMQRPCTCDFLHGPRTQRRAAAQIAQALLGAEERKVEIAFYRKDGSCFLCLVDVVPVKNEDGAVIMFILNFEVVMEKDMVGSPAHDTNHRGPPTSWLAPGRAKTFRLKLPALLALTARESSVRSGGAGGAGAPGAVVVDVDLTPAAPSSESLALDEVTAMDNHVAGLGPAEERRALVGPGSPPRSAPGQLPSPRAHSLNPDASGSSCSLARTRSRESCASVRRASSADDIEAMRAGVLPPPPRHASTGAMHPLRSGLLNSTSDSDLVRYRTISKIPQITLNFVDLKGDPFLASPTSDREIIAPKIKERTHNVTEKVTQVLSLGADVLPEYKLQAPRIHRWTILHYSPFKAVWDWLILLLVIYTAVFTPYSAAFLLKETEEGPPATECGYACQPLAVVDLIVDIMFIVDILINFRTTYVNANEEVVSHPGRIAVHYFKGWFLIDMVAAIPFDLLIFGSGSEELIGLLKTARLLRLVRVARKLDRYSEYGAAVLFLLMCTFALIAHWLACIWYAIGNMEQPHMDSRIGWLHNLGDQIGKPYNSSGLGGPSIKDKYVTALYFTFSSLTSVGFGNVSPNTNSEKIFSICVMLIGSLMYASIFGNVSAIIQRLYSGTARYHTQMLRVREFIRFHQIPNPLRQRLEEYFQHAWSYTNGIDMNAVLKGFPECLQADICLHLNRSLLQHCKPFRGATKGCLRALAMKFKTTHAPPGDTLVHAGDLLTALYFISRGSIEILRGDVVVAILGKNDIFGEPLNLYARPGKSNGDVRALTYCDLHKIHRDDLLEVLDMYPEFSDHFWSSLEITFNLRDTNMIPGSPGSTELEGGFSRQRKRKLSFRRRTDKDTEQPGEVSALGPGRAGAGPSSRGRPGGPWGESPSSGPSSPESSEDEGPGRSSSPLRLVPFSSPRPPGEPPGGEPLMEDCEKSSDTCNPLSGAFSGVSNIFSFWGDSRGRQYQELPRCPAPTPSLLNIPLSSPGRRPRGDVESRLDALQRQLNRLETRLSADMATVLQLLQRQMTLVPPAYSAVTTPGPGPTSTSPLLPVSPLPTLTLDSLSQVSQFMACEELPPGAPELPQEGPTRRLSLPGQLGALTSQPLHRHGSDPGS
Setting [2] is: cellular, HCT116 cells, 10 μM bleomycin, six hours.
[3] abbreviates: Ki [Kv1.11 hERG], patch clamp, HEK293 transfected with hERG gene.
Setting [4] is: cellular DNA-PK phosphorylation at serine 2056, HCT116.
Setting [5] is: read-out: Ki [Kv1.11 hERG], hERG patch clamp assay (cells without asterisk).
The mark [6] stands for this setting: read-out: Ki [Kv1.11 hERG], patch clamp, HEK293 transfected with hERG gene.
Where [7] appears, read: read-out: Ki [Kv1.11 hERG], Table 5.
[8] abbreviates: Ki [Kv1.11 hERG], hERG patch clamp assay (cells without asterisk).

Description for Kv11.1 (hERG): C) Kv11.1 (hERG) Ion Channel Activity (Patch Clamp Assay)
The patch-clamp measurement was carried out at room temperature in whole-cell configuration on human embryonic kidney cells (HEK293) which have been transfected in a stable manner with the hERG gene.
The whole-cell configurations were carried out using an automated patch clamp device (Patchliner™, Nanion Technologies, Munich). […] The glass chip has a hole of defined size to which the cell is transferred into the Gigaseal by application of a reduced pressure and brought into the whole-cell configuration. Buffer, cell suspension and test substances were added to microchannels of the chip using a Teflon-coated pipette. The cells were clamped to a holding potential of −80 mV. For measurement of substance-promoted inhibition of the Kv11.1 channel, the following voltage protocol was applied at 10-second intervals: 51 ms/−80 mV, 500 ms/+40 mV, 500 ms/−40 mV, 200 ms/−80 mV. The leakage current is subtracted by means of the P4 method. The cells were resuspended in extracellular buffer (EC) and applied to the chip. After the cell had been collected, the seal was improved by addition of a seal enhancer buffer. As soon as the whole-cell configuration had been reached, the seal enhancer buffer was washed out and replaced by extracellular buffer. The measurement started in EC for 1.5 min. DMSO (vehicle control, 0.1% of DMSO) was then applied, and the control current was recorded for 3 min. The test substance was subsequently added twice in the same concentration, and the potassium current was measured for 3.5 min in each case.
The reference substance used was the Kv11.1 (hERG) ion channel blocker quinidine. The effects of test substances and quinidine were standardised to the associated vehicle control. The effect on the Kv11.1 (hERG) channel activity was assessed from the potassium current at −40 mV. For the calculation, the current was evaluated for the respective final trace.
During the measurement, an aliquot of the test substance was taken for concentration determination. The sample was measured immediately by HPLC, and the final concentration was determined from a calibration curve.

Consider `CC(C#N)Oc1ccc(C(O)c2cc(-c3ncnc4cc(N5CCOCC5)ccc34)c(F)cc2Cl)nn1` (single isomer, unassigned) [Example 102, 2-(6-{[2-Chloro-4-fluoro-5-(7-morpholin-4-yl-quinazolin-4-yl)-phenyl)hydroxy-methyl}pyridazin-3-yloxy)propionitrile], for which the IC50 against DNA-PK (enzymatic, 5 μM ATP) is < 3 nM; in data set [1] (setting [2]), < 500 nM. The Ki on Kv11.1 (hERG) (setting [3]) lay in the range of 15000 to 25000 nM.
Regarding `Cc1cncnc1C(O)c1cc(-c2ncnc3cc(N4CCOCC4)ccc23)ccc1Cl` (stereo not drawn) [Example 418, [2-Chloro-5-(7-morpholin-4-yl-quinazolin-4-yl)-phenyl]-(5-methyl-pyrimidin-4-yl)-methanol], the IC50 was 7 to 30 nM on DNA-PK (biochemical DNA-PK assay) and 500 to 5000 nM in data set [1] (setting [4]). Besides, the Ki on Kv11.1 (hERG) (setting [5]) is > 25000 nM.
With `OC(c1cccnc1)c1cc(-c2ncnc3cc(N4CCOCC4)ccc23)c(F)cc1F` (stereo not drawn) [Example 217, [2,4-Difluoro-5-(7-morpholin-4-ylquinazolin-4-yl)phenyl]pyridin-3-ylmethanol], the IC50 against DNA-PK (Table 7) was 3 to 7 nM; in data set [1] (Table 7, HCT116 cells), < 500 nM. The Ki on Kv11.1 (hERG) (read-out: Ki [Kv1.11 hERG], Table 7) was > 25000 nM.
`CCOc1ccc(C(O)c2ccc(F)c(-c3ncnc4cc(N5CCOCC5)ccc34)c2)nn1` (stereo not drawn) [Example 134, (6-Ethoxy-pyridazin-3-yl)-[4-fluoro-3-(7-morpholin-4-yl-quinazolin-4-yl)-phenyl]methanol]: the half-maximal inhibitory concentration (IC50) against DNA-PK (enzymatic, 5 μM ATP) is 7 to 30 nM; in data set [1] (setting [2]) it was 500 to 5000 nM. The Ki on Kv11.1 (hERG) (setting [3]) lay in the range of 10000 to 15000 nM.
On to `OC(c1cccnn1)c1cc(-c2ncnc3cc(N4CCOCC4)ccc23)c(F)cc1Cl` (stereo not drawn) [Example 47, [2-Chloro-4-fluoro-5-(7-morpholin-4-yl-quinazolin-4-yl)phenyl]-pyridazin-3-ylmethanol], for which the IC50 against DNA-PK (enzymatic, 5 μM ATP) was 3 to 7 nM; in data set [1] (setting [2]) it was < 500 nM. For the same molecule, the Ki on Kv11.1 (hERG) (setting [6]) is > 25000 nM.
Take `OC(c1ccc(F)c(-c2ncnc3cc(N4CCOCC4)ccc23)c1)c1ncccc1Br` (stereo not drawn) [Example 478, (3-bromo-pyridin-2-yl)-[4-fluoro-3-(7-morpholin-4-yl-quinazolin-4-yl)-phenyl] methanol]: the IC50 at DNA-PK (biochemical DNA-PK assay) is < 3 nM; in data set [1] (setting [4]), < 500 nM. Besides, the Ki at Kv11.1 (hERG) (setting [5]) was < 10000 nM.
Regarding `OC(c1cc(F)c(F)c(-c2ncnc3cc(N4CCOCC4)ccc23)c1)c1nccs1` (stereo not drawn) [Example 171, [3,4-Difluoro-5-(7-morpholin-4-yl-quinazolin-4-yl)-phenyl]thiazol-2-yl-methanol], the IC50 against DNA-PK (Table 5) is < 3 nM; in data set [1] (Table 5, HCT116 cells) it was 500 to 5000 nM. For the same molecule, the Ki on Kv11.1 (hERG) (setting [7]) is < 10000 nM.
As for `Cc1cnc(C)c(C(O)c2cc(-c3ncnc4cc(N5CCOCC5)ccc34)c(F)cc2F)n1` (stereo not drawn) [Example 88], the IC50 is < 3 nM against DNA-PK (enzymatic, 5 μM ATP) and < 500 nM in data set [1] (setting [2]). Further, the Ki on Kv11.1 (hERG) (setting [3]) fell in the range of 15000 to 25000 nM.
Consider `Cn1cnc2c(C(O)c3cc(-c4ncnc5cc(N6CCOCC6)ccc45)c(F)cc3F)ncnc21` (stereo not drawn) [Example 346, [2,4-Difluoro-5-(7-morpholin-4-yl-quinazolin-4-yl)-phenyl]-(9-methyl-9H-purin-6-yl)-methanol], for which the results for the IC50 (against DNA-PK (biochemical DNA-PK assay); in data set [1] (setting [4])) were 7 to 30 nM and 10000 to 30000 nM, respectively. At Kv11.1 (hERG) (setting [8]), this molecule displayed a Ki of 15000 to 25000 nM.
With `O[C@H](c1ccc(F)c(-c2ncnc3cc(N4CCOCC4)ccc23)c1)c1nccnc1Cl` [Example 27, (R)-(3-Chloro-pyrazin-2-yl)-[4-fluoro-3-(7-morpholin-4-yl-quinazolin-4-yl)phenyl]-methanol], the IC50 is < 3 nM on DNA-PK (enzymatic, 5 μM ATP) and < 500 nM in data set [1] (setting [2]). In addition, at Kv11.1 (hERG) (setting [6]), the Ki is > 25000 nM.
As to `OCc1csc(C(O)c2cc(-c3ncnc4cc(N5CCOCC5)ccc34)c(F)cc2Cl)n1` (stereo not drawn) [Example 142, [2-Chloro-4-fluoro-5-(7-morpholin-4-yl-quinazolin-4-yl)-phenyl]-(4-hydroxymethyl-thiazol-2-yl)-methanol], the IC50 against DNA-PK (Table 5) is < 3 nM; in data set [1] (Table 5, HCT116 cells) it was 500 to 5000 nM. In addition, the Ki on Kv11.1 (hERG) (setting [7]) is < 10000 nM.
Consider `Cn1c(C(O)c2cc(-c3ncnc4cc(N5CCOCC5)ccc34)ccc2Cl)cccc1=O` (single isomer, unassigned) [Example 364, 6-{[2-Chloro-5-(7-morpholin-4-yl-quinazolin-4-yl)-phenyl]hydroxy-methyl}-1-methyl-1H-pyridin-2-one], for which the IC50 against DNA-PK (biochemical DNA-PK assay) was < 3 nM; in data set [1] (setting [4]), < 500 nM. Besides, the Ki at Kv11.1 (hERG) (setting [5]) was > 25000 nM.
Turning to `Cn1c(C(O)c2cc(-c3ncnc4cc(N5CCOCC5)ccc34)c(F)cc2Cl)nccc1=O` (stereo not drawn) [Example 368, 2-{[2-Chloro-4-fluoro-5-(7-morpholin-4-yl-quinazolin-4-yl)-phenyl]hydroxy-methyl}-3-methyl-3H-pyrimidin-4-one], the figures for the IC50 (at DNA-PK (biochemical DNA-PK assay); in data set [1] (setting [4])) were 7 to 30 nM and 5000 to 10000 nM, respectively. On Kv11.1 (hERG) (setting [5]), the Ki was > 25000 nM.
Consider `N#CCCOc1ccc(C(O)c2cc(-c3ncnc4cc(N5CCOCC5)ccc34)c(F)cc2Cl)nn1` (stereo not drawn) [Example 107, 3-(6-{[2-Chloro-4-fluoro-5-(7-morpholin-4-yl-quinazolin-4-yl)-phenyl]hydroxy-methyl}pyridazin-3-yl-oxy)propionitrile], for which the IC50 is 3 to 7 nM on DNA-PK (enzymatic, 5 μM ATP) and 500 to 5000 nM in data set [1] (setting [2]). For the same molecule, the Ki at Kv11.1 (hERG) (setting [6]) is > 25000 nM.
Regarding `O=c1[nH]nc(C(O)c2ccc(F)c(-c3ncnc4cc(N5CCOCC5)ccc34)c2)c2sccc12` (stereo not drawn) [Example 337, 7-[[4-Fluoro-3-(7-morpholino-quinazolin-4-yl)-phenyl]hydroxy-methyl]-5H-thieno-[2,3-d}pyridazin-4-one], the IC50 on DNA-PK (biochemical DNA-PK assay) was < 3 nM; in data set [1] (setting [4]) it was 500 to 5000 nM. Besides, at Kv11.1 (hERG) (setting [8]), the Ki is 15000 to 25000 nM.
On to `OC(c1cccnn1)c1cc(-c2ncnc3cc(N4CCOCC4)ccc23)c(F)cc1Cl` (single isomer, unassigned) [Example 29, [2-Chloro-4-fluoro-5-(7-morpholin-4-yl-quinazolin-4-yl)phenyl]-pyridazin-3-ylmethanol], for which the IC50 on DNA-PK (enzymatic, 5 μM ATP) fell in the range of 7 to 30 nM; in data set [1] (setting [2]), 10000 to 30000 nM. Also, the Ki at Kv11.1 (hERG) (human, HEK293 cells stably transfected with the hERG gene, Ki [Kv1.11 hERG], patch clamp, HEK293 transfected with hERG gene) was in the range of 15000 to 25000 nM.
For the molecule `OC(c1cc(-c2ncnc3cc(N4CCOCC4)ccc23)ccc1Cl)c1ncnc2ccoc12` (stereo not drawn) [Example 414, [2-Chloro-5-(7-morpholin-4-yl-quinazolin-4-yl)-phenyl]furo[3,2-d}-pyrimidin-4-yl-methanol], the IC50 was 7 to 30 nM at DNA-PK (biochemical DNA-PK assay) and < 500 nM in data set [1] (setting [4]). The same molecule yielded a Ki on Kv11.1 (hERG) (setting [8]) of 10000 to 15000 nM.
As to `COc1nccnc1C(C(N)=O)c1ccc(F)c(-c2ncnc3cc(N4CCOCC4)ccc23)c1` (stereo not drawn) [Example 305, 2-[4-Fluoro-3-(7-morpholin-4-yl-quinazolin-4-yl)-phenyl]-2-(3-methoxy-pyrazin-2-yl)acetamide], the IC50 at DNA-PK (biochemical DNA-PK assay) was in the range of 7 to 30 nM; in data set [1] (setting [4]) it was 5000 to 10000 nM. At Kv11.1 (hERG) (setting [5]), the Ki is > 25000 nM.
On the same counts, the results for `Cn1c(C(O)c2ccc(F)c(-c3ncnc4cc(N5CCOCC5)ccc34)c2)cccc1=O` (stereo not drawn) [Example 375, 6-{[4-Fluoro-3-(7-morpholin-4-yl-quinazolin-4-yl)-phenyl]hydroxy-methyl}-1-methyl-1H-pyridin-2-one] are < 3 nM, 500 to 5000 nM and > 25000 nM.
Consider `OC(c1cccc(-c2ncnc3cc(N4CCOCC4)ccc23)c1)(c1nccs1)C(F)(F)F` (stereo not drawn) [Example 173, 2,2,2-Trifluoro-1-[3-(7-morpholin-4-yl-quinazolin-4-yl)-phenyl)-1-thiazol-2-ylethanol], for which the IC50 at DNA-PK (Table 5) is < 3 nM; in data set [1] (Table 5, HCT116 cells) it was 5000 to 10000 nM. In addition, on Kv11.1 (hERG) (setting [7]), the Ki was < 10000 nM.
Turning to `OC(c1ccc(Cl)nn1)c1cc(-c2ncnc3cc(N4CCOCC4)ccc23)c(F)cc1F` (stereo not drawn) [Example 49, (6-Chloro-pyridazin-3-yl)-[2,4-difluoro-5-(7-morpholin-4-yl-quinazolin-4-yl)phenyl]-methanol], the IC50 against DNA-PK (enzymatic, 5 μM ATP) is < 3 nM; in data set [1] (setting [2]), 500 to 5000 nM. Besides, on Kv11.1 (hERG) (setting [6]), the Ki was > 25000 nM.
As to `COc1nccnc1[C@H](O)c1cc(-c2ncnc3cc(N4CCOCC4)ccc23)c(F)cc1Cl` [Example 455, (R)-[2-Chloro-4-fluoro-5-(7-morpholin-4-yl-quinazolin-4-yl)-phenyl]-(3-methoxy-pyrazin-2-yl)-methanol], the half-inhibitory concentration (IC50) against DNA-PK (biochemical DNA-PK assay) is < 3 nM; in data set [1] (setting [4]) it was < 500 nM. The same molecule registered a Ki on Kv11.1 (hERG) (setting [8]) of 15000 to 25000 nM.
For the molecule `CCn1cc(C(O)c2cc(-c3ncnc4cc(N5CCOCC5)ccc34)c(F)cc2Cl)cn1` (stereo not drawn) [Example 202, [2-Chloro-4-fluoro-5-(7-morpholin-4-ylquinazolin-4-yl)-phenyl]-(1-ethyl-1H-pyrazol-4-yl)-methanol], the IC50 against DNA-PK (Table 5) lay in the range of 7 to 30 nM; in data set [1] (Table 5, HCT116 cells), 500 to 5000 nM. Also, the Ki on Kv11.1 (hERG) (Ki [Kv1.11 hERG], Table 5) lay within 15000 to 25000 nM.
Turning to `OC(c1cc(-c2ncnc3cc(N4CCOCC4)ccc23)c(F)cc1F)c1nncc2sccc12` (stereo not drawn) [Example 341, [2,4-Difluoro-5-(7-morpholin-4-yl-quinazolin-4-yl)-phenyl]thieno[2,3-d}-pyridazin-4-yl-methanol], the IC50 was < 3 nM at DNA-PK (biochemical DNA-PK assay) and < 500 nM in data set [1] (setting [4]). Moreover, at Kv11.1 (hERG) (setting [8]), the Ki fell in the range of 15000 to 25000 nM.
Turning to `Cn1c(C(O)c2cc(-c3ncnc4cc(N5CCOCC5)ccc34)ccc2F)cccc1=O` (stereo not drawn) [Example 365, 6-{[2-Fluoro-5-(7-morpholin-4-yl-quinazolin-4-yl)-phenyl]hydroxy-methyl}-1-methyl-1H-pyridin-2-one], the values for the IC50 (at DNA-PK (biochemical DNA-PK assay); in data set [1] (setting [4])) were 3 to 7 nM and 500 to 5000 nM, respectively. Moreover, the Ki on Kv11.1 (hERG) (setting [5]) is > 25000 nM.
